Columns and labels:
Assay type in all cases: functional, cell-based
A549 = test: Antiproliferative activity against human A549 cells assessed as inhibition of cell growth incubated for 72 hrs by SRB assay; details: A549, 72 h
MDA-MB-231 = test: Antiproliferative activity against triple negative human MDA-MB-231 cells assessed as inhibition of cell growth incubated for 72 hrs by SRB assay; details: MDA-MB-231, 72 h
MCF7 = test: Antiproliferative activity against HER2-negative human MCF7 cells assessed as inhibition of cell growth incubated for 72 hrs by SRB assay; details: MCF7, 72 h
KB = test: Antiproliferative activity against human KB cells assessed as inhibition of cell growth incubated for 72 hrs by SRB assay
[1] = Antiproliferative activity against human KB-VIN cells overexpressing p-gp assessed as inhibition of cell growth incubated for 72 hrs by SRB assay; details: KBVIN

SMILES	IC50 (A549) [µM]	IC50 (MDA-MB-231) [µM]	IC50 (MCF7) [µM]	IC50 (KB) [µM]	IC50 [1] [µM]
COc1c(O)c(O)cc(-c2ccccc2)c1CC=C(C)C	> 10	> 10	> 10	> 10	> 10
COc1cc(-c2ccc3c(c2)C=CC(C)(C)O3)cc(O)c1O	> 10	> 10	> 10	> 10	> 10
CC(=O)O[C@H]1C(=O)[C@@]2(C)[C@H]([C@H](OC(=O)c3ccccc3)[C@]3(O)C[C@H](OC(=O)[C@H](O)[C@@H](NC(=O)c4ccccc4)c4ccccc4)C(C)=C1C3(C)C)[C@]1(OC(C)=O)CO[C@@H]1C[C@@H]2O [PACLITAXEL]	–	0.0009	–	< 0.0001	2.2
C=CC(C)(C)c1c2c(c(O)c3c1O[C@]14C(=C[C@@H]5C[C@H]1C(C)(C)O[C@@]4(C/C=C(\C)C(=O)O)C5=O)C3=O)C=CC(C)(C)O2	0.8	0.5	1.3	0.6	0.6
COc1cc(-c2ccc(O)c(C/C=C(/C)CO)c2)cc(O)c1O	> 10	> 10	> 10	> 10	> 10
COc1cc(-c2ccc(O)c(CCC(C)CO)c2)cc(O)c1O (stereo not drawn)	> 10	> 10	> 10	> 10	> 10
C=CC(C)(C)c1c2c(c(O)c3c1O[C@]14[C@H](C3=O)[C@@H](OC)[C@H]3C[C@H]1C(C)(C)O[C@@]4(C/C=C(\C)C(=O)O)C3=O)C=CC(C)(C)O2	> 10	> 10	10.4	6.1	> 10

Now from value to compound, other results behind:

IC50 (A549) [µM]	IC50 (MDA-MB-231) [µM]	IC50 (MCF7) [µM]	IC50 (KB) [µM]	SMILES	IC50 [1] [µM]
2.9	4.6	5.6	1.2	C=CC(C)(C)c1c2c(c(O)c3c1OC(C)(C)[C@H]1CCC(C)=C[C@@H]31)C(=O)C1=C[C@@H]3C[C@H]4C(C)(C)O[C@@](C/C=C(\C)C(=O)O)(C3=O)[C@@]14O2	5.2
5.6	5.7	6.4	5.2	C=CC(C)(C)c1c2c(c(O)c3c1OC(C)(C)[C@H]1CCC(C)=C[C@@H]31)C(=O)[C@@H]1[C@@H](OC)[C@@H]3C[C@H]4C(C)(C)O[C@@](C/C=C(\C)C(=O)O)(C3=O)[C@@]14O2	5.2
6.1	6.4	6.7	5.3	C=CC(C)(C)c1c2c(c(O)c3c1OC(C)(C)[C@H]1CCC(C)=C[C@@H]31)C(=O)[C@@H]1[C@@H](O)[C@@H]3C[C@H]4C(C)(C)O[C@@](C/C=C(\C)C(=O)O)(C3=O)[C@@]14O2	5.7
3	2.9	3.2	1.8	C=CC(C)(C)c1c2c(c(O)c3c1OC(C)(C)[C@H]1CCC(C)=C[C@@H]31)C(=O)C1=C[C@@H]3C[C@H]4C(C)(C)O[C@@](C/C=C(/C)C(=O)O)(C3=O)[C@@]14O2	4
